Assay results: US20190125888A1, “TARGETED CONJUGATES AND PARTICLES AND FORMULATIONS THEREOF” (priority 2015, published 2019)
Where two headings read alike, the source gives them in different places. Where a SMILES comes first, the peptide text is derived from it. Bridges are numbered along the chain shown (N, C = ends). [ ]: non-standard residue; d: D form. The star is where a group is joined. NH(CH2)2SS(DM1) = COc1cc2cc(c1Cl)N(C)C(=O)C[C@H](OC(=O)[C@H](C)N(C)C(=O)CCSSCCN*)[C@]1(C)O[C@H]1[C@H](C)[C@@H]1C[C@@](O)(NC(=O)O1)[C@H](OC)/C=C/C=C(\C)C2; X1 = COc1cc2cc(c1Cl)N(C)C(=O)C[C@H](OC(=O)[C@H](C)N(C)C(=O)CCS*)[C@]1(C)O[C@H]1[C@H](C)[C@@H]1C[C@@](O)(NC(=O)O1)[C@H](OC)/C=C/C=C(\C)C2; Octanoyl = CCCCCCCC(=O)*

Tests used:
[1] = Chrom LogP of maytansinoid conjugates; format: physicochemical
[2] = test system: NCI-H524 (ATCC) human lung cancer cells; format: cell-based
Method: FIG. 1 is a graph of various conjugates represented as bars and showing on the Y-axis their activity in an H524 proliferation assay with and without competition by octreotide. […] This illustrates the suprprising finding that only maytansinoid conjugates show activity that is dependent on the receptor.
Conjugates were assessed in an in vitro assay evaluating inhibition of cell proliferation. NCI-H524 (ATCC) human lung cancer cells were plated in 96 well, V-bottomed plates (Costar) at a concentration of 5,000 cells/well and 24 hours later were treated with compound for 6 hours and further incubated 66 hours. Compound starting dose was 20 μM and three fold serial dilutions were done for a total of ten points. After 6 hours of treatment, cells were spun down, the drug containing media was removed, and fresh complete medium was added and used to resuspend the cells, which were spun again. After removal of the wash media, the cells were resuspended in complete medium, then transferred into white walled, flat bottomed 96 well plates. […] Proliferation was measured using CellTiter Glo reagent using the standard protocol (Promega) and a Glomax multi+detection system (Promega). Percent proliferation inhibition was calculated using the following formula: % inhibition=(control-treatment)/control*100. Control is defined as vehicle alone. IC50 curves were generated using the nonlinear regression analysis (four parameter) with GraphPad Prism 6.
Conjugates were tested for their activity dependence on the somatostatin receptor. Active agent Z in the conjugate was selected from auristatin, carbazitaxel, DM1, doxorubicin, platinum, SN-38 and vinblastine. Active agent Z is connected to octreotide with various linkers. Proliferation IC50 values of the conjugates were measured. Proliferation IC50 values of the conjugates without octreotide competition were also measured. The ratio of IC50 with octreotide competition and IC50 without octreotide competition is an indicator of whether activity is at least particially dependent on bind to the somatostatin receptor. […] Therefore, the activity of conjugates comprising DM1 is dependent on the binding to the somatostatin receptor.

human SSTR2 = human SSTR2 (Homo sapiens, UniProt P30874); assay: Radioligand-receptor binding assay, [125I] somatostatin, membranes from SSTR2 expressing CHO-K1 cells
Method: These conjugates were also assessed in an in vitro assay evaluating binding to the somatostatin receptor 2 (SSTR2). A radioligand-receptor binding assay was conducted at Eurofins Panlabs (Taiwan) to determine the affinity of conjugates described herein to the SSTR2. The assay measures binding of radiolabeled ligand, [^125I] labeled somatostatin, to human SSTR2 using membrane preparations from SSTR2 expressing CHO-K1 cells. Membranes were incubated with radiolabeled somatostatin (0.03 nM) in the presence of conjugate/compound starting at a dose of 10 uM using 6× serial dilutions to obtain a 10-pt curve. After a four hour incubation, membranes were filtered and washed 3× and counted to determine the remaining [^125I] somatostatin bound to the receptor. IC50 values were determined by a non-linear, least squares regression analysis using MathIQ™ (ID Business Solutions Ltd., UK).

[3] = Ligand charge of maytansinoid conjugates; format: physicochemical
human NCI-H69 SCLC = assay: H69 xenograft efficacy study, tumor growth inhibition; format: in vivo, mice
Method: Applicants assessed the activity of maytansinoid conjugates in vivo. In these experiments, the ability of conjugates to affect the growth of human NCI-H69 SCLC was tested. For the in vivo study, 8 week old female NCR nude mice were inoculated subcutaneously into the right flank with 2 million cells in 1:1 RPMI 1640 (Invitrogen, Carlsbad, Calif.)/Matrigel® (BD Biosciences, San Jose, Calif.). Tumor measurements were taken twice weekly, using vernier calipers. Tumor volume was calculated using the formula: V=0.5×width×width×length.
When tumors approached a volume of 200 mm^3, mice were randomized into four groups of ten animals. Mice were treated with vehicle control (10% propylene glycol in water for injection) and maytansinoid conjugates (10% propylene glycol in water for injection). Final tumor volumes were analyzed using with a one-way analysis of variance and Tukey multiple comparison test.

[4] = read-out: H524 IC50 6 h, 6 hours treatment, further 66 hours incubation
[5] = read-out: H524 IC50 with 100 μM octreotide 6 h, with 100 μM octreotide competition, 6 h treatment

Chain of human SSTR2 (P30874 whole entry): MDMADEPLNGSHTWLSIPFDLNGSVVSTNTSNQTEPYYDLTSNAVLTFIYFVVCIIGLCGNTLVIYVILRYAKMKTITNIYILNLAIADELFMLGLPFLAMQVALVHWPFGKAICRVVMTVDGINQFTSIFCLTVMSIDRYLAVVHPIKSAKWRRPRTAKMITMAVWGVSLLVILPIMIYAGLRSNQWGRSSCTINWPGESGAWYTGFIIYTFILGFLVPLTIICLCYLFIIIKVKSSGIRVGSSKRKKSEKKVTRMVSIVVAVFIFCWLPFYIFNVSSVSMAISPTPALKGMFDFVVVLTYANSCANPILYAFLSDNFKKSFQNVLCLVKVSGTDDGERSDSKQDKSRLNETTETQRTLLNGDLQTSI

Row | Compound | chromatographic logP [1] | IC50 [2, 4] [nM] | IC50 [2, 5] [nM] | Ki (human SSTR2) [nM] | Ligand charge [3] | TGI % Day 13 (human NCI-H69 SCLC; 0.7 mg/kg once weekly for two doses, Day 13) [%] | TGI % Day 17 (human NCI-H69 SCLC; 0.7 mg/kg once weekly for two doses, Day 17) [%] | TGI % Day 20 (human NCI-H69 SCLC; 0.7 mg/kg once weekly for two doses, Day 20) [%] | TGI % Day 24 (human NCI-H69 SCLC; 0.7 mg/kg once weekly for two doses, Day 24) [%] | TGI % Day 30 (human NCI-H69 SCLC; 0.7 mg/kg once weekly for two doses, Day 30) [%] | TGI % at day 22 (human NCI-H69 SCLC; Dose 0.67 × 2 mg/kg, total dose 1.34 mg/kg) [%]
1 | COc1cc2cc(c1Cl)N(C)C(=O)C[C@H](OC(=O)[C@H](C)N(C)C(=O)CCC(C)(C)SSC[C@H](NC(=O)[C@@H]1CSSC[C@H](NC(=O)[C@H](N)Cc3ccccc3)C(=O)N[C@@H](Cc3ccc(O)cc3)C(=O)N[C@H](Cc3c[nH]c4ccccc34)C(=O)N[C@@H](CCCCN)C(=O)N[C@@H]([C@@H](C)O)C(=O)N1)C(N)=O)[C@]1(C)O[C@H]1[C@H](C)[C@@H]1C[C@@](O)(NC(=O)O1)[C@H](OC)/C=C/C=C(\C)C2 [Conjugate 4] | 2.21 | 78 | 348 | 0.075 | +2 |  |  |  |  |  | 
2 | COc1cc2cc(c1Cl)N(C)C(=O)C[C@H](OC(=O)[C@H](C)N(C)C(=O)CCSSC(C)(C)[C@H](NC(=O)[C@@H]1CSSC[C@H](NC(=O)[C@@H](Cc3ccccc3)NC(=O)NCc3ccccc3)C(=O)N[C@@H](Cc3ccc(O)cc3)C(=O)N[C@H](Cc3c[nH]c4ccccc34)C(=O)N[C@@H](CCCCN)C(=O)N[C@@H]([C@@H](C)O)C(=O)N1)C(N)=O)[C@]1(C)O[C@H]1[C@H](C)[C@@H]1C[C@@](O)(NC(=O)O1)[C@H](OC)/C=C/C=C(\C)C2 [Conjugate 7] | 2.6 | 4.7 | 181 | 0.025 | +1 |  |  |  |  |  | 
3 | CCCC(=O)N[C@H](Cc1ccccc1)C(=O)N[C@H]1CSSC[C@@H](C(=O)N[C@H](C(=O)NCCSSCCC(=O)N(C)[C@@H](C)C(=O)O[C@H]2CC(=O)N(C)c3cc(cc(OC)c3Cl)C/C(C)=C/C=C/[C@@H](OC)[C@@]3(O)C[C@H](OC(=O)N3)[C@@H](C)[C@@H]3O[C@@]23C)[C@@H](C)O)NC(=O)[C@H]([C@@H](C)O)NC(=O)[C@H](CCCCN)NC(=O)[C@@H](Cc2c[nH]c3ccccc23)NC(=O)[C@H](Cc2ccc(O)cc2)NC1=O [Conjugate 19] | 2.88 | 6.9 | 111 |  | +1 |  |  |  |  |  | 
4 | COc1cc2cc(c1Cl)N(C)C(=O)C[C@H](OC(=O)[C@H](C)N(C)C(=O)CCSSCCNC(=O)[C@@H](NC(=O)[C@@H]1CSSC[C@H](NC(=O)[C@@H](Cc3ccccc3)NC(=O)NC3CCCCC3)C(=O)N[C@@H](Cc3ccc(O)cc3)C(=O)N[C@H](Cc3c[nH]c4ccccc34)C(=O)N[C@@H](CCCCN)C(=O)N[C@@H]([C@@H](C)O)C(=O)N1)[C@@H](C)O)[C@]1(C)O[C@H]1[C@H](C)[C@@H]1C[C@@](O)(NC(=O)O1)[C@H](OC)/C=C/C=C(\C)C2 [Conjugate 20] | 3.1 | 11 | 52 |  | +1 |  |  |  |  |  | 
5 | CCCCCCCC(=O)N[C@H](Cc1ccccc1)C(=O)N[C@H]1CSSC[C@@H](C(=O)NCCSSCCC(=O)N(C)[C@@H](C)C(=O)O[C@H]2CC(=O)N(C)c3cc(cc(OC)c3Cl)C/C(C)=C/C=C/[C@@H](OC)[C@@]3(O)C[C@H](OC(=O)N3)[C@@H](C)[C@@H]3O[C@@]23C)NC(=O)[C@H]([C@@H](C)O)NC(=O)[C@H](CCCCN)NC(=O)[C@@H](Cc2c[nH]c3ccccc23)NC(=O)[C@H](Cc2ccc(O)cc2)NC1=O [Conjugate 21] (Octanoyl-[dF]CY[dW]KTC-{NH(CH2)2SS(DM1)}; disulfide 2-7) | 3.48 |  |  | 1.29 | +1 |  |  |  |  |  | 
6 | COc1cc2cc(c1Cl)N(C)C(=O)C[C@H](OC(=O)[C@H](C)N(C)C(=O)CCSSC[C@H](NC(=O)[C@@H]1CSSC[C@H](NC(=O)[C@H](N)Cc3c[nH]c4ccccc34)C(=O)N[C@@H](Cc3ccc(O)cc3)C(=O)N[C@H](Cc3c[nH]c4ccccc34)C(=O)N[C@@H](CCCCN)C(=O)N[C@@H]([C@@H](C)O)C(=O)N1)C(N)=O)[C@]1(C)O[C@H]1[C@H](C)[C@@H]1C[C@@](O)(NC(=O)O1)[C@H](OC)/C=C/C=C(\C)C2 [Conjugate 24] (H-[dW]CY[dW]KTCC(X1)-NH2; disulfide 2-7) | 2.03 | 140 | 214 |  | +2 |  |  |  |  |  | 
7 | COc1cc2cc(c1Cl)N(C)C(=O)C[C@H](OC(=O)[C@H](C)N(C)C(=O)CCSSC[C@H](NC(=O)[C@@H]1CSSC[C@H](NC(=O)[C@@H](Cc3ccccc3)NC(=O)NCCC(F)(F)C(F)(F)C(F)(F)C(F)(F)C(F)(F)C(F)(F)C(F)(F)C(F)(F)F)C(=O)N[C@@H](Cc3ccc(O)cc3)C(=O)N[C@H](Cc3c[nH]c4ccccc34)C(=O)N[C@@H](CCCCN)C(=O)N[C@@H]([C@@H](C)O)C(=O)N1)C(N)=O)[C@]1(C)O[C@H]1[C@H](C)[C@@H]1C[C@@](O)(NC(=O)O1)[C@H](OC)/C=C/C=C(\C)C2 [Conjugate 40] | 4 |  |  | 3.51 | +1 |  |  |  |  |  | 
8 | COc1cc2cc(c1Cl)N(C)C(=O)C[C@H](OC(=O)[C@H](C)N(C)C(=O)CCSSCCC(=O)NC[C@H](NC(=O)[C@@H]1CSSC[C@H](NC(=O)[C@H](N)Cc3ccccc3)C(=O)N[C@@H](Cc3ccc(O)cc3)C(=O)N[C@H](Cc3c[nH]c4ccccc34)C(=O)N[C@@H](CCCCN)C(=O)N[C@@H]([C@@H](C)O)C(=O)N1)C(N)=O)[C@]1(C)O[C@H]1[C@H](C)[C@@H]1C[C@@](O)(NC(=O)O1)[C@H](OC)/C=C/C=C(\C)C2 [Conjugate 44] |  | 3.6 | 218 | 0.022 | +2 | 58.9 | 56.7 | 59.6 | 53.1 | 56.1 | 60
9 | CCNC(=O)[C@@H](NC(=O)[C@@H]1CSSC[C@H](NC(=O)[C@@H](Cc2ccccc2)NCCCSSCCC(=O)N(C)[C@@H](C)C(=O)O[C@@H]2CC(=O)N(C)c3cc(cc(OC)c3Cl)C/C(C)=C/C=C/[C@@H](OC)[C@@]3(O)C[C@H](OC(=O)N3)[C@@H](C)[C@@H]3O[C@@]23C)C(=O)N[C@@H](Cc2ccc(O)cc2)C(=O)N[C@H](Cc2c[nH]c3ccccc23)C(=O)N[C@@H](CCCCN)C(=O)N[C@@H]([C@@H](C)O)C(=O)N1)[C@@H](C)O [Conjugate 50] | 2.32 | 43 | 149 |  | +2 |  |  |  |  |  | 
10 | CCCCCCNC(=O)[C@@H](NC(=O)[C@@H]1CSSC[C@H](NC(=O)[C@@H](Cc2ccccc2)NC(=O)NCCSSCCC(=O)N(C)[C@@H](C)C(=O)O[C@H]2CC(=O)N(C)c3cc(cc(OC)c3Cl)C/C(C)=C/C=C/[C@@H](OC)[C@@]3(O)C[C@H](OC(=O)N3)[C@@H](C)[C@@H]3O[C@@]23C)C(=O)N[C@@H](Cc2ccc(O)cc2)C(=O)N[C@H](Cc2c[nH]c3ccccc23)C(=O)N[C@@H](CCCCN)C(=O)N[C@@H]([C@@H](C)O)C(=O)N1)[C@@H](C)O [Conjugate 52] | 3.24 | 23 | 167 |  | +1 |  |  |  |  |  | 
11 | CCNC(=O)[C@@H](NC(=O)[C@@H]1CSSC[C@H](NC(=O)[C@@H](Cc2ccccc2)NC(=O)NCCSSCCC(=O)N(C)[C@@H](C)C(=O)O[C@H]2CC(=O)N(C)c3cc(cc(OC)c3Cl)C/C(C)=C/C=C/[C@@H](OC)[C@@]3(O)C[C@H](OC(=O)N3)[C@@H](C)[C@@H]3O[C@@]23C)C(=O)N[C@@H](Cc2ccc(O)cc2)C(=O)N[C@H](Cc2c[nH]c3ccccc23)C(=O)N[C@@H](CCCCN)C(=O)N[C@@H]([C@@H](C)O)C(=O)N1)[C@@H](C)O [Conjugate 53] | 2.45 | 42 | 86 |  | +1 |  |  |  |  |  | 
